Measured values as given in patent publication US20060178398A1, “Therapeutic compounds for treating dyslipidemic conditions” (priority 2004, published 2006).

System: Caco-2 cells
Assay: Cholesterol efflux from cultured human cells (Caco-2, 3H-cholesterol, apoA-I)
Type: cell-based
Conditions: 24 h, mean of quadruplicate incubations
Description: To assess the relevant biological activity of the LXR agonists, certain compounds were tested for their ability to increase cholesterol efflux from cultured human cells, as described by Sparrow et al., JBC, 277, 10021-10027, Mar. 22, 2002. Caco-2 cells, which are of human origin, were obtained from ATCC and grown in Opti-MEM (Gibco #51985-034) containing 10% FCS, non-essential amino acids (Gibco #11140-050), and vitamins (Gibco # 11120-052). Caco-2 cells were plated at 100,000 cells/well in 48-well plates. After four days the cells had reached confluence, and were then labeled with ^3H-cholesterol by incubation for 24 hours in fresh growth media containing ^3H-cholesterol (10 μCi/ml). Following labeling with ^3H-cholesterol, cells were washed and incubated an additional 24 hours in serum-free media containing 1 mg/ml BSA, to allow for equilibration of ^3H-cholesterol with intracellular cholesterol. Cholesterol efflux was initiated by adding 10 μg/ml apoA-I, with or without compound, in serum-free medium. Compounds were added to cell culture medium from DMSO solutions, and control cells received an equivalent amount of DMSO, never exceeding 0.1%. After 24 hours, media were harvested and cells dissolved in 0.1 M NaOH. Media were briefly centrifuged to remove non-adherent cells, and then aliquots of both the supernatants and the dissolved cells were subjected to liquid scintillation spectrometry to determine radioactivity. Cholesterol efflux is expressed as a percentage, calculated as (^3H-cholesterol in medium/(^3H-cholesterol in medium +^3H-cholesterol in cells))×100.

Structure (SMILES) | % cholesterol efflux (compound concentration 10 nM) [%] | % cholesterol efflux (compound concentration 30 nM) [%] | % cholesterol efflux (compound concentration 100 nM) [%] | % cholesterol efflux (compound concentration 300 nM) [%] | % cholesterol efflux (compound concentration 1000 nM) [%] | % cholesterol efflux (compound concentration 3000 nM) [%]
CCCc1c(OCCCN(C)c2cnc(CC(=O)O)cn2)ccc2c(C(F)(F)F)noc12 [Example 25, {5-[methyl(3-{[7-propyl-3-(trifluoromethyl)-1,2-benzisoxazol-6-yl]oxy}propyl)amino]pyrazin-2-yl}acetic acid] | 3.4 | 4.4 | 4.3 | 6.6 | 7.4 | 7.7
CCCc1c(OCCCn2ccc3cc(CC(=O)O)c(Cl)cc32)ccc2c(C(F)(F)F)noc12 [Example 40, [6-chloro-1-(3-{[7-propyl-3-(trifluoromethyl)-1,2-benzisoxazol-6-yl]oxy}propyl)-1H-indol-5-yl]acetic acid] | 4.9 | 5.2 | 5.9 | 6.3 | 6.5 | 7.7
